Key:
rP2Y6 = rP2Y6 (Rattus norvegicus, UniProt Q63371); assay: Inhibition of UDP binding at rP2Y6; conditions: read-out: rP2Y6 % inhibition of UDP binding at 100 μM, n = 3, mean ± SEM
human NTPDase2 = molecular target: T1, human NTPDase2 (Homo sapiens, UniProt Q9Y5L3); assay: NTPDase inhibition assay by capillary electrophoresis (CE), NTPDase2; format: biochemical; conditions: for Ki: human NTPDase2, CE method, ATP 320 μM, Km 70 μM, read-out: NTPDase2 Ki [μM] ± SEM
T1 sequence (Q9Y5L3 1-495): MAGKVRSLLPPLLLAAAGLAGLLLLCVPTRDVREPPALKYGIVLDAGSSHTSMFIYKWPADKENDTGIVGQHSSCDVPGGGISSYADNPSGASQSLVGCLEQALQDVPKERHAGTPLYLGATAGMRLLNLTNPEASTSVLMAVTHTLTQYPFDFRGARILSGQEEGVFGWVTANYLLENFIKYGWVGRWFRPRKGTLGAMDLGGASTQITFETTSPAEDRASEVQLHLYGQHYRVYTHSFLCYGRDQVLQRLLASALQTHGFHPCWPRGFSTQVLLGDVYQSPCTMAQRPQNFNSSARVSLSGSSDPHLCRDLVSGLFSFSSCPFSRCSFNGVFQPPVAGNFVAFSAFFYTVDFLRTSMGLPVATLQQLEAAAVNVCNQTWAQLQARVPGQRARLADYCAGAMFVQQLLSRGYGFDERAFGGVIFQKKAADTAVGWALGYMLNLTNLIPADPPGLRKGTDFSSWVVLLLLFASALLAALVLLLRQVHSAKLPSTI

hP2Y12 = hP2Y12 (Homo sapiens, UniProt Q9H244); assay: Inhibition of [3H]PSB-0413 binding at hP2Y12; conditions: mean ± SEM, read-out: hP2Y12 % Inhibition of [^3H]PSB-0413 Binding at 10 μM, n = 3
hP2Y12, sequence (Q9H244 whole entry): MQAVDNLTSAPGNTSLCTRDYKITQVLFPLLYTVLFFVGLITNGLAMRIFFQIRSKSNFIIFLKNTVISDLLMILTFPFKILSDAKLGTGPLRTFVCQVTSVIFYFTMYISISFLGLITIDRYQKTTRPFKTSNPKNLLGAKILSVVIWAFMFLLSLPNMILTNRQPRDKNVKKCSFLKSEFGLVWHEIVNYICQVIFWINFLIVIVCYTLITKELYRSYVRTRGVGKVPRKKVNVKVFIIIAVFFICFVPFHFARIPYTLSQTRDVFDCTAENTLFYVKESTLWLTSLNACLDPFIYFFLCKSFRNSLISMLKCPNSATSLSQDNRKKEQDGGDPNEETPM
Method: In table 2 inhibition data of selected examples at human P2Y receptor subtypes were collected. It can be seen that no compound was identified that inhibited P2Y receptors at high concentrations of 100 μM and 10 μM, respectively.

human NTPDase3 = molecular target: T2, human NTPDase3 (Homo sapiens, UniProt O75355); assay: NTPDase inhibition assay by capillary electrophoresis (CE), NTPDase3; format: biochemical; conditions: ATP 320 μM; for inhibition at 1000 µM: 1 mM compound; for Ki: CE method, Km 75 μM, read-out: NTPDase3 Ki [μM] ± SEM
T2 sequence (O75355 1-529): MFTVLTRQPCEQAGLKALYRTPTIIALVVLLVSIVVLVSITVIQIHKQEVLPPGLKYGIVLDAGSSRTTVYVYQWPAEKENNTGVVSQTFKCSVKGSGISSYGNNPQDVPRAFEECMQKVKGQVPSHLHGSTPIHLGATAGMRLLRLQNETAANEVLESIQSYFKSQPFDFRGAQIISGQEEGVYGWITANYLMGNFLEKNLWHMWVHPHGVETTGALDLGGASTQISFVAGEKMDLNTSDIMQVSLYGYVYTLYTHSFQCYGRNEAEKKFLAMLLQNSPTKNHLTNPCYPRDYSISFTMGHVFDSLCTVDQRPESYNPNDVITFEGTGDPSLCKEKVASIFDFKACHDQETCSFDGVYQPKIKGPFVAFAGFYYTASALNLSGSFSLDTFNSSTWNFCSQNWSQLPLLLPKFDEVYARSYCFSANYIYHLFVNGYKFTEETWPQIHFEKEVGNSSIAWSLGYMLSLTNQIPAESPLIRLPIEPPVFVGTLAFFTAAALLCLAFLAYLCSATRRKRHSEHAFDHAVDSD
Method: The applied enzyme inhibition assay has been described (Iqbal J, Vollmayer P, Braun N, Zimmermann H, Müller C E. A capillary electrophoresis method for the characterization of ecto-nucleoside triphosphate diphosphohydrolases (NTPDases) and the analysis of inhibitors by in-capillary enzymatic microreaction. Purinergic Signalling 2005, 1, 349-358).
A. CE instrumentation: All experiments were carried out using a P/ACE MDQ capillary electrophoresis system (Beckman Instruments, Fullerton, Calif., USA) equipped with a UV detection system coupled with a diode-array detector (DAD). Data collection and peak area analysis were performed by the P/ACE MDQ software 32 KARAT obtained from Beckman Coulter. The capillary temperature was kept constant at 25° C. The temperature of the sample storing unit was also adjusted to 25° C. The electrophoretic separations were carried out using an eCAP polyacrylamide-coated fused-silica capillary [(30 cm (20 cm effective length)×50 μm internal diameter (I.D.)×360 μm outside diameter (O.D.), obtained from CS-Chromatographie (Langerwehe, Germany)]. The separation was performed using an applied current of −60 μA and a data acquisition rate of 8 Hz. Analytes were detected using direct UV absorbance at 210 nm. The capillary was conditioned by rinsing with water for 2 min and subsequently with buffer (phosphate 50 mM, pH 6.5) for 1 min. Sample injections were made at the cathodic side of the capillary.
B. NTPDase inhibition assay by capillary electrophoresis: Enzyme inhibition assays were carried out at 37° C. in a final volume of 100 μl. The reaction mixture contained 320 μM of ATP (substrate) in reaction buffer. The reaction buffer contained 140 mM NaCl, 5 mM KCl, 1 mM MgCl2, 2 mM CaCl2, and 10 mM Hepes, pH 7.4.
Different concentrations of inhibitors dissolved in DMSO or water (10 μl) were added and the reaction was initiated by the addition of 10 μl of the appropriately diluted recombinant or native human or rat NTPDase enzyme. […] The mixture (final volume 100 μl) was incubated for 15 min and terminated by heating at 99° C. for 4 min. Aliquots of the reaction mixture (50 μl) were then transferred to mini-CE vials and injected into the CE instrument under the conditions described above. 20 μM of UMP was used as internal standard. Inhibition of NTPDase was tested over a range of 6 to 8 concentrations of test compound spanning 3 orders of magnitude to determine K1 values. Each analysis was repeated two times (in triplicates) in two separate experiments. The Cheng-Prusoff equation was used to calculate the K1 values from the IC50 values, determined by the non-linear curve fitting program PRISM® 3.0 (GraphPad, San Diego, Calif., USA). In table 1K, values of selected compounds as inhibitors of human NTPDases are given.

rP2Y6, sequence (Q63371 whole entry): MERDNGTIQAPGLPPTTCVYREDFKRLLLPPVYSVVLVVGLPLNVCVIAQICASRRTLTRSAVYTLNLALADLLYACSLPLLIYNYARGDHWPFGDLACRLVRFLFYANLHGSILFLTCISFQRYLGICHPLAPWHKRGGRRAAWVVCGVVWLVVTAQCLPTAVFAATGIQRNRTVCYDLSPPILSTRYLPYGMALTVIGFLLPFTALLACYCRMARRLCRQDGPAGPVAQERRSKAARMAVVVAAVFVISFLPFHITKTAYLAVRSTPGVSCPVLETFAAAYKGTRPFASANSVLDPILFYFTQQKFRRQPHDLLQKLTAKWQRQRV

Structure (SMILES)	inhibition at 100 µM (rP2Y6) [%]	Ki (human NTPDase2) [µM]	inhibitor of NTPDase (in words) (human NTPDase2; in words, compare Tab. 1)	inhibition at 10 µM (hP2Y12) [%]	inhibition at 1000 µM (human NTPDase3) [%]	Ki (human NTPDase3) [µM]
CCOP(=O)(Cc1ccc(NC(=O)CNC(=O)[C@H]2O[C@@H](n3ccc(=O)[nH]c3=O)C(O)C2O)cc1)OCC (stereo in doubt) [Compound 2, 4-[2-((2S,3R,4S,5R)-5-(2,4-Dioxo-3,4-dihydropyrimidin-1(2H)-yl)-3,4-dihydroxy-tetrahydrofurane-2-carboxamido)ethaneamido]benzylphosphonic acid diethylester]	-10 ± 10	8.2 ± 2.1	excellent inhibitor	2 ± 6	0	> 200
CCOP(=O)(Cc1ccc(NC(=O)CCNC(=O)[C@H]2O[C@@H](n3ccc(=O)[nH]c3=O)C(O)C2O)cc1)OCC (stereo in doubt) [Compound 3, 4-[3-((2S,3R,4S,5R)-5-(2,4-Dioxo-3,4-dihydropyrimidin-1(2H)-yl)-3,4-di-hydroxy-tetrahydrofurane-2-carboxamido)propaneamido]benzylphosphonic acid diethylester]	7 ± 7	173 ± 17		9 ± 4	40	> 200
